From US6689759B1, “Methods of Treating hepatitis virus infections with N-substituted-1,5-dideoxy-1,5-imino-d-glucitol compounds in combination therapy” (G. D. Searle & Co., priority 2000, dated 2004)

Key:
[1] = system: Hepatitis B virus; conditions: literature; cited from earlier work
[2] = HIV infected patients; cited from earlier work
[3] = in vivo; cited from earlier work
[4] = system: HBV DNA; test: Cell culture experiments with N-nonyl-DNJ: total HBV DNA and immune precipitated DNA (IPDNA); format: cell-based
From the text: (§1) There are two measures of drug efficacy: reduction in total HBV DNA (measured by quantitative PCR), and reduction in HBV DNA from capsids with intact surface glycoproteins, which is the active form of the virus (measured by an ELISA-like immune precipitation assay followed by quantitative PCR).

[5] = system: woodchuck hepatitis virus (WHV); test: Woodchuck model, N-nonyl-DNJ monotherapy, BID oral dosing, total HBV DNA and IPDNA; format: in vivo
Description: Therefore, five groups of four animals each (all groups had both sexes, all but the control had two of each sex) were assigned to 0, 12.5, 25, 50, and 100 mg/kg/day with BID oral dosing. These were lab-reared wild animals. All animals were infected with woodchuck hepatitis virus (WHV) as neonates, and had been tested positive on serological tests for WHV surface antigen. Blood samples were drawn one week prior to dosing (−1 week), immediately before dosing (0 weeks), weekly during dosing (1, 2, 3, and 4 weeks), and after the end of dosing (5, 6, 8, and 10 weeks).
as §1
Before models are fitted to the data, a log transform was applied because: 1) the variation in IPDNA increases with increasing IPDNA values; the log transformation gives values with a nearly constant variation, and 2) it is expected that drug effects will appear as a constant multiplier of the IPDNA level. Because there are zero values of IPDNA, a small value (about ½ of the smallest non-zero value) was added to all values before the log transform.
Two approaches were used to model the changes in slope to week with dose of N-nonyl-DNJ: a linear modeling approach and a nonlinear model. Both approaches assume that the (linear) rate of change of the Log(IPDNA) measure over the dosing period is the “right” measure to reflect the effect of the drug on the virus. Both approaches are fit in stages, and the first stage is common to both approaches. First, a simple straight line regression model is fit using weeks 0-4 to predict log(IPDNA+10) separately for each animal by run combination. In the second stage, the response variable is the slope fitted in the first stage.
For the linear approach, a model is fit with slope to week as the response where run is considered a block, dose has a significant effect (almost all of this effect is due to a slope to dose), and the relevant error for testing the effect of dose is the variation among animals treated alike (after the adjustment for the runs as blocks). This is similar to using the calibration data within each run to first adjust each run's data to a common virus DNA concentration; the difference is that here the data from the woodchucks are used for the run adjustment rather than only the calibration data.
For the nonlinear approach, a four parameter logistic model is fit with the slope to week as the response and the dose as the predictor. Again, run is considered a block, but because no run has all weeks, it is not possible to fully reflect the blocking in the nonlinear approach. […] The average maximum slope observed was 2.71 additional Log(IPDNA μg/mL)/week, or an increase of about 150%/week, the average minimum slope observed with N-nonyl-DNJ is 0.31 fewer Log(IPDNA μg/mL)/week), or about a decrease of about 25%/week. The slopes, the fitted model, the parameter estimates from the-model, and the approximate standard errors for these parameters are all shown in FIG. 3. […] Whether in woodchucks or humans, the effective dose of both the N-alkyl-DNJ and nucleoside or nucleotide antiviral agent administered in combination therewith can be administered in two equal daily subdoses (i.e., B.I.D.).

Structure (SMILES): Cc1cn([C@H]2C[C@H](N=[N+]=[N-])[C@@H](CO)O2)c(=O)[nH]c1=O [zidovudine, 3′-azido-3′-deoxythymidine, reference compound]
- usefulness against Hepatitis B infection [1]: appears to have little use against the same virus

Structure (SMILES): CCCCN1C[C@H](O)[C@@H](O)[C@H](O)[C@H]1CO [n-butyl-DNJ, N-butyl-1-5-dideoxy-1,5-imino-D-glucitol]
- usefulness against Hepatitis B infection [1]: effective
- tolerability [2]: well tolerated

Structure (SMILES): O=c1[nH]c(=O)n([C@@H]2O[C@H](CO)[C@@H](O)[C@@H]2F)cc1I [fialuridine]
- toxicity [3]: drug-related liver failure leading to death in some patients

Structure (SMILES): CCCCCCCCCN1C[C@H](O)[C@@H](O)[C@H](O)[C@H]1CO [N-nonyl-DNJ, N-(n-nonyl-)-1,5-dideoxy-1,5-imino-D-glucitol]
- effect on immune precipitated DNA (IPDNA) [4]: marked effect
- effect on total HBV DNA [4]: little or no effect
- average maximum slope observed ([5]; additional Log(IPDNA)/week, i.e. an increase, low dose end of the model): 2.71 Log(IPDNA μg/mL)/week
- average minimum slope observed ([5]; fewer Log(IPDNA)/week, i.e. a decrease): 0.31 Log(IPDNA μg/mL)/week
- EC50 ([5]; four parameter logistic model, slope of Log(IPDNA+10) to week versus dose): 7.88 mg/kg/BID dose
- decrease of IPDNA at the average minimum slope ([5]; in vivo): about 25 %/week
- increase of IPDNA at the average maximum slope ([5]; low dose end of the model): about 150 %/week
- effect on total HBV DNA measurements ([5]; woodchuck, all dose levels, quantitative PCR): no effect
- slope of IPDNA over weeks 0-4 ([5]; woodchuck, change in slope statistically significant (p<0.005)): generally increasing for low dose animals and decreasing for high dose animals
- approximate effective monotherapy dose ([5]; woodchucks): about 16 mg/kg/day
